Data reported in the NIST ThermoML archive (doi:10.1021/je060411g).

Assay: molar heat capacity at constant pressure
Conditions: 101.33 kPa

CCC(O)CC [3-pentanol]
Conditions	molar heat capacity at constant pressure [J/K/mol]
152.99 K, Liquid	150.52
154.56 K, Crystal	105.87
155.94 K, Liquid	150.86
156.51 K, Crystal	107.42
158.46 K, Crystal	108.86
158.9 K, Liquid	151.16
160 K, Crystal	118.8
160.42 K, Crystal	110.34
161.85 K, Liquid	151.55
162.38 K, Crystal	111.71
164.37 K, Crystal	103.35
164.81 K, Liquid	152.15
166.37 K, Crystal	115.34
167.78 K, Liquid	153.56
168.31 K, Crystal	115.72
170 K, Crystal	110.3
170.23 K, Crystal	116.98
170.76 K, Liquid	159.22
172.17 K, Crystal	118.28
174.1 K, Crystal	119.45
176.01 K, Crystal	120.74
177.92 K, Crystal	121.98
179.81 K, Crystal	123.05
180 K, Crystal	123.2
181.69 K, Crystal	124.1
183.56 K, Crystal	125.1
185.42 K, Crystal	126.2
187.27 K, Crystal	127.45
189.1 K, Crystal	129.05
190 K, Crystal	129.8
190.93 K, Crystal	130.67
191.18 K, Crystal	146.69
192.74 K, Crystal	132.33
193.08 K, Crystal	133.23
194.53 K, Crystal	134.71
194.98 K, Crystal	136.27
196.31 K, Crystal	137.6
197.93 K, Crystal	143.45
198.06 K, Crystal	141.76
200 K, Crystal	155.5
206.59 K, Liquid	163.08
206.86 K, Liquid	162.81
208.54 K, Liquid	163.45
209.46 K, Liquid	164.31
210 K, Liquid	164.2
210.2 K, Liquid	164.21
211.87 K, Liquid	164.95
212.32 K, Liquid	165.57
213.52 K, Liquid	165.62
215.16 K, Liquid	167.02
215.17 K, Liquid	166.57
216.82 K, Liquid	167.31
217.99 K, Liquid	168.45
218.46 K, Liquid	168.22
220 K, Liquid	169.1
220.1 K, Liquid	169.14
220.8 K, Liquid	170.05
221.73 K, Liquid	170.07
223.36 K, Liquid	170.87
223.59 K, Liquid	171.64
224.98 K, Liquid	171.87
226.37 K, Liquid	173.5
226.59 K, Liquid	172.95
228.2 K, Liquid	173.95
229.13 K, Liquid	175.38
229.81 K, Liquid	174.99
230 K, Liquid	175.1
231.41 K, Liquid	176.24
231.88 K, Liquid	177.23
233 K, Liquid	177.29
234.59 K, Liquid	178.66
234.61 K, Liquid	179.15
236.17 K, Liquid	179.8
237.32 K, Liquid	181.22
237.75 K, Liquid	180.73
239.32 K, Liquid	182.03
240 K, Liquid	183.5
240.01 K, Liquid	183.55
240.89 K, Liquid	183.27
242.45 K, Liquid	184.57
242.69 K, Liquid	185.78
244 K, Liquid	185.93
245.34 K, Liquid	188.15
245.55 K, Liquid	187.34
247.09 K, Liquid	188.71
247.98 K, Liquid	190.62
248.63 K, Liquid	190.19
250 K, Liquid	191.4
250.16 K, Liquid	191.69
250.61 K, Liquid	193.22
251.68 K, Liquid	193.3
253.2 K, Liquid	194.61
253.21 K, Liquid	195.73
254.72 K, Liquid	195.45
255.8 K, Liquid	198.08
256.23 K, Liquid	197.32
257.73 K, Liquid	198.94
258.37 K, Liquid	201.08
259.23 K, Liquid	200.52
260 K, Liquid	201
260.72 K, Liquid	202.41
260.93 K, Liquid	204.02
262.21 K, Liquid	203.99
263.46 K, Liquid	207.15
263.69 K, Liquid	205.59
265.16 K, Liquid	207.37
265.98 K, Liquid	210.2
266.63 K, Liquid	209.14
268.09 K, Liquid	210.93
268.47 K, Liquid	213.3
269.54 K, Liquid	212.66
270 K, Liquid	213.6
270.95 K, Liquid	216.47
270.99 K, Liquid	214.5
272.44 K, Liquid	216.21
273.41 K, Liquid	219.31
273.87 K, Liquid	218
275.3 K, Liquid	219.86
275.85 K, Liquid	222.84
276.73 K, Liquid	221.67
278.15 K, Liquid	223.45
278.28 K, Liquid	226.05
279.56 K, Liquid	225.24
280 K, Liquid	227
280.68 K, Liquid	229.31
280.97 K, Liquid	227.16
282.37 K, Liquid	228.87
283.07 K, Liquid	232.43
283.76 K, Liquid	230.71
285.15 K, Liquid	232.47
285.44 K, Liquid	235.64
286.54 K, Liquid	234.44
287.8 K, Liquid	239.08
287.92 K, Liquid	236.08
289.29 K, Liquid	237.78
290 K, Liquid	238.7
290.66 K, Liquid	239.56
292.02 K, Liquid	241.24
293.38 K, Liquid	242.8
294.74 K, Liquid	244.64
296.09 K, Liquid	246.1
297.43 K, Liquid	247.9
298.15 K, Liquid	248.7
298.77 K, Liquid	249.27
300 K, Liquid	250.7
300.11 K, Liquid	250.87
301.44 K, Liquid	252.15
302.77 K, Liquid	254
304.09 K, Liquid	255.2
305.41 K, Liquid	256.63
306.73 K, Liquid	258.11
308.04 K, Liquid	259.35
309.35 K, Liquid	260.74
